{
  "source": "ChEMBL document CHEMBL1201862",
  "about": "“PubChem BioAssay data set” (2004)",
  "experiment_in_all_cases": "NCI-60 cell line screen, 48 h",
  "key": {"786-0": {"system": "786-0"}, "A498": {"system": "A498"}, "A549": {"system": "A549"}, "ACHN": {"system": "ACHN"}, "CAKI-1": {"system": "CAKI-1"}, "CCRF-CEM": {"system": "CCRF-CEM"}, "COLO 205": {"system": "COLO 205"}, "DLD-1": {"system": "DLD-1"}, "DMS-114": {"system": "DMS-114"}, "DMS-273": {"system": "DMS-273"}, "EKVX": {"system": "EKVX"}, "HCC 2998": {"system": "HCC 2998"}, "HCT-116": {"system": "HCT-116"}, "HCT-15": {"system": "HCT-15"}, "HL-60": {"system": "HL-60"}, "HOP-62": {"system": "HOP-62"}, "HOP-92": {"system": "HOP-92"}, "HT-29": {"system": "HT-29"}, "IGROV-1": {"system": "IGROV-1"}, "K562": {"system": "K562"}, "KM-20L2": {"system": "KM-20L2"}, "KM12": {"system": "KM12"}, "LOX IMVI": {"system": "LOX IMVI"}, "LXFL 529": {"system": "LXFL 529"}, "M14": {"system": "M14"}, "M19-MEL": {"system": "M19-MEL"}, "MOLT-4": {"system": "MOLT-4"}, "Malme-3M": {"system": "Malme-3M"}, "NCI-H226": {"system": "NCI-H226"}, "NCI-H23": {"system": "NCI-H23"}, "NCI-H460": {"system": "NCI-H460"}, "NCI-H522": {"system": "NCI-H522"}, "OVCAR-3": {"system": "OVCAR-3"}, "OVCAR-4": {"system": "OVCAR-4"}, "OVCAR-5": {"system": "OVCAR-5"}, "OVCAR-8": {"system": "OVCAR-8"}, "RPMI-8226": {"system": "RPMI-8226"}, "RXF 393": {"system": "RXF 393"}, "RXF 631": {"system": "RXF 631"}, "SF-268": {"system": "SF-268"}, "SF-295": {"system": "SF-295"}, "SF-539": {"system": "SF-539"}, "SK-MEL-28": {"system": "SK-MEL-28"}, "SK-MEL-2": {"system": "SK-MEL-2"}, "SK-MEL-5": {"system": "SK-MEL-5"}, "SK-OV-3": {"system": "SK-OV-3"}, "SN12C": {"system": "SN12C"}, "SNB-19": {"system": "SNB-19"}, "SNB-75": {"system": "SNB-75"}, "SNB-78": {"system": "SNB-78"}, "SR": {"system": "SR"}, "SW-620": {"system": "SW-620"}, "TK-10": {"system": "TK-10"}, "U-251": {"system": "U-251"}, "UACC-257": {"system": "UACC-257"}, "UO-31": {"system": "UO-31"}, "XF498": {"system": "XF498"}},
  "note": "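Results reflect a 48-hour exposure of cells in 96-well plates to compound at five concentrations. The concentration for 50% growth inhibition is given as GI50.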 Activity calls are given as the source filed them. Cut-off read from the data, not from the text of the source: active = GI50 up to about 1.1 µM and inactive = higher.",
  "data": [
    {"compound": "Cn1cc2ccccc2c1-c1nc(N)nc(F)n1", "values": [
      {"measurement": "GI50", "setting": "786-0", "value": "> 100 µM (inactive)"},
      {"measurement": "GI50", "setting": "A498", "value": "15.6 µM (inactive)"},
      {"measurement": "GI50", "setting": "A549", "value": "> 100 µM (inactive)"},
      {"measurement": "GI50", "setting": "ACHN", "value": "> 100 µM (inactive)"},
      {"measurement": "GI50", "setting": "CAKI-1", "value": "> 100 µM (inactive)"},
      {"measurement": "GI50", "setting": "CCRF-CEM", "value": "> 100 µM (inactive)"},
      {"measurement": "GI50", "setting": "COLO 205", "value": "> 100 µM (inactive)"},
      {"measurement": "GI50", "setting": "DLD-1", "value": "> 100 µM (inactive)"},
      {"measurement": "GI50", "setting": "DMS-114", "value": "85.3 µM (inactive)"},
      {"measurement": "GI50", "setting": "DMS-273", "value": "> 100 µM (inactive)"},
      {"measurement": "GI50", "setting": "EKVX", "value": "64.4 µM (inactive)"},
      {"measurement": "GI50", "setting": "HCC 2998", "value": "> 100 µM (inactive)"},
      {"measurement": "GI50", "setting": "HCT-116", "value": "> 100 µM (inactive)"},
      {"measurement": "GI50", "setting": "HCT-15", "value": "> 100", "unit": "µM"},
      {"measurement": "GI50", "setting": "HL-60", "value": "> 100 µM (inactive)"},
      {"measurement": "GI50", "setting": "HOP-62", "value": "> 100 µM (inactive)"},
      {"measurement": "GI50", "setting": "HOP-92", "value": "> 100 µM (inactive)"},
      {"measurement": "GI50", "setting": "HT-29", "value": "> 100 µM (inactive)"},
      {"measurement": "GI50", "setting": "IGROV-1", "value": "> 100 µM (inactive)"},
      {"measurement": "GI50", "setting": "K562", "value": "> 100 µM (inactive)"},
      {"measurement": "GI50", "setting": "KM-20L2", "value": "> 100 µM (inactive)"},
      {"measurement": "GI50", "setting": "KM12", "value": "> 100 µM (inactive)"},
      {"measurement": "GI50", "setting": "LOX IMVI", "value": "> 100 µM (inactive)"},
      {"measurement": "GI50", "setting": "LXFL 529", "value": "> 100 µM (inactive)"},
      {"measurement": "GI50", "setting": "M14", "value": "> 100 µM (inactive)"},
      {"measurement": "GI50", "setting": "M19-MEL", "value": "54.3 µM (inactive)"},
      {"measurement": "GI50", "setting": "MOLT-4", "value": "> 100 µM (inactive)"},
      {"measurement": "GI50", "setting": "Malme-3M", "value": "56.1 µM (inactive)"},
      {"measurement": "GI50", "setting": "NCI-H226", "value": "29.5 µM (inactive)"},
      {"measurement": "GI50", "setting": "NCI-H23", "value": "> 100 µM (inactive)"},
      {"measurement": "GI50", "setting": "NCI-H460", "value": "> 100 µM (inactive)"},
      {"measurement": "GI50", "setting": "NCI-H522", "value": "> 100 µM (inactive)"},
      {"measurement": "GI50", "setting": "OVCAR-3", "value": "> 100 µM (inactive)"},
      {"measurement": "GI50", "setting": "OVCAR-4", "value": "> 100 µM (inactive)"},
      {"measurement": "GI50", "setting": "OVCAR-5", "value": "> 100 µM (inactive)"},
      {"measurement": "GI50", "setting": "OVCAR-8", "value": "> 100 µM (inactive)"},
      {"measurement": "GI50", "setting": "RPMI-8226", "value": "> 100 µM (inactive)"},
      {"measurement": "GI50", "setting": "RXF 393", "value": "82.8 µM (inactive)"},
      {"measurement": "GI50", "setting": "RXF 631", "value": "> 100 µM (inactive)"},
      {"measurement": "GI50", "setting": "SF-268", "value": "> 100 µM (inactive)"},
      {"measurement": "GI50", "setting": "SF-295", "value": "50.9 µM (inactive)"},
      {"measurement": "GI50", "setting": "SF-539", "value": "> 100 µM (inactive)"},
      {"measurement": "GI50", "setting": "SK-MEL-28", "value": "> 100 µM (inactive)"},
      {"measurement": "GI50", "setting": "SK-MEL-2", "value": "> 100 µM (inactive)"},
      {"measurement": "GI50", "setting": "SK-MEL-5", "value": "> 100 µM (inactive)"},
      {"measurement": "GI50", "setting": "SK-OV-3", "value": "> 100 µM (inactive)"},
      {"measurement": "GI50", "setting": "SN12C", "value": "> 100 µM (inactive)"},
      {"measurement": "GI50", "setting": "SNB-19", "value": "> 100 µM (inactive)"},
      {"measurement": "GI50", "setting": "SNB-75", "value": "47.3 µM (inactive)"},
      {"measurement": "GI50", "setting": "SNB-78", "value": "> 100 µM (inactive)"},
      {"measurement": "GI50", "setting": "SR", "value": "> 100 µM (inactive)"},
      {"measurement": "GI50", "setting": "SW-620", "value": "78.3 µM (inactive)"},
      {"measurement": "GI50", "setting": "TK-10", "value": "> 100 µM (inactive)"},
      {"measurement": "GI50", "setting": "U-251", "value": "> 100 µM (inactive)"},
      {"measurement": "GI50", "setting": "UACC-257", "value": "> 100 µM (inactive)"},
      {"measurement": "GI50", "setting": "UO-31", "value": "67.9 µM (inactive)"},
      {"measurement": "GI50", "setting": "XF498", "value": "> 100 µM (inactive)"}
    ]}
  ]
}
